The NIST ThermoML archive (doi:10.1016/j.jct.2005.08.013)
Several values for one entry are separate records, joined by “and”; a condition that tells them apart may be missing. Equal values may be shown once.

Conditions: Calculated from knudsen effusion weight loss

c1ccc2cc3ccccc3cc2c1 [anthracene]
Crystal
Conditions	vapor or sublimation pressure
340.41 K	0.000143 kPa and 0.000144 kPa and 0.000141 kPa
342.25 K	0.000172 kPa and 0.000173 kPa and 0.000167 kPa
344.06 K	0.000211 kPa and 0.000206 kPa
346.4 K	0.000258 kPa and 0.000262 kPa and 0.000263 kPa
348.15 K	0.000306 kPa and 0.000304 kPa and 0.000308 kPa
350.15 K	0.000375 kPa and 0.000371 kPa and 0.000376 kPa
352.39 K	0.000464 kPa and 0.000459 kPa and 0.000458 kPa
354.06 K	0.00055 kPa and 0.000548 kPa and 0.000554 kPa
356.2 K	0.000673 kPa and 0.000679 kPa and 0.000658 kPa
358.22 K	0.000815 kPa and 0.000821 kPa and 0.00081 kPa
360.38 K	0.00101 kPa and 0.00098 kPa

c1ccc2c(c1)ccc1ccccc12 [phenanthrene]
Crystal 2
Conditions	vapor or sublimation pressure
313.46 K	0.000123 kPa and 0.000124 kPa
315.48 K	0.000151 kPa and 0.000155 kPa and 0.000156 kPa
317.41 K	0.000185 kPa and 0.000191 kPa and 0.000193 kPa
319.47 K	0.000238 kPa and 0.000239 kPa and 0.000235 kPa
321.48 K	0.000292 kPa and 0.000293 kPa and 0.000296 kPa
323.16 K	0.000343 kPa and 0.000352 kPa
325.46 K	0.000436 kPa and 0.000446 kPa and 0.000453 kPa
327.47 K	0.000543 kPa and 0.000544 kPa and 0.00055 kPa
329.47 K	0.00067 kPa and 0.000675 kPa and 0.000678 kPa
331.42 K	0.000814 kPa and 0.000825 kPa and 0.000834 kPa
333.16 K	0.001 kPa and 0.00101 kPa

c1ccc(-c2cc(-c3ccccc3)cc(-c3ccccc3)c2)cc1 [1,3,5-triphenylbenzene]
Crystal
Conditions	vapor or sublimation pressure
407.36 K	0.00014 kPa and 0.000141 kPa and 0.000139 kPa
409.3 K	0.000173 kPa and 0.000166 kPa and 0.000164 kPa
411.3 K	0.000215 kPa and 0.00021 kPa and 0.000206 kPa
413.23 K	0.000251 kPa and 0.000256 kPa
415.35 K	0.000317 kPa and 0.000316 kPa
416.86 K	0.000361 kPa and 0.000348 kPa
417.22 K	0.00037 kPa and 0.000371 kPa
419.24 K	0.000454 kPa and 0.00047 kPa
421.36 K	0.000542 kPa and 0.000563 kPa and 0.000568 kPa
423.29 K	0.000672 kPa and 0.000668 kPa and 0.000649 kPa
425.26 K	0.000796 kPa and 0.000784 kPa
427.36 K	0.000966 kPa and 0.000984 kPa and 0.001 kPa
429.29 K	0.00117 kPa and 0.0012 kPa

O=C(O)c1ccccc1 [benzoic acid]
Crystal
Conditions	vapor or sublimation pressure
299.33 K	0.000134 kPa and 0.000131 kPa
301.04 K	0.000162 kPa and 0.00016 kPa and 0.000155 kPa
303.16 K	0.000203 kPa and 0.000201 kPa and 0.00021 kPa
305.24 K	0.000271 kPa and 0.000265 kPa and 0.000261 kPa
307.13 K	0.000332 kPa and 0.000326 kPa and 0.000323 kPa
309.25 K	0.000414 kPa and 0.000408 kPa and 0.00042 kPa
311.3 K	0.000525 kPa and 0.000512 kPa and 0.000524 kPa
313.2 K	0.000643 kPa and 0.000622 kPa and 0.000647 kPa
315.27 K	0.000815 kPa and 0.000799 kPa and 0.00083 kPa
317.32 K	0.00105 kPa and 0.00102 kPa and 0.00101 kPa

O=C1c2ccccc2-c2cccc3cccc1c23 [7H-benz[de]anthracen-7-one]
Crystal
Conditions	vapor or sublimation pressure
390.31 K	0.000152 kPa and 0.000149 kPa
392.23 K	0.000179 kPa and 0.000177 kPa
394.57 K	0.000234 kPa and 0.000221 kPa
396.35 K	0.000263 kPa and 0.000262 kPa and 0.00026 kPa
398.22 K	0.000323 kPa and 0.000325 kPa
400.41 K	0.000394 kPa and 0.000381 kPa
402.19 K	0.000471 kPa and 0.000453 kPa
404.34 K	0.00057 kPa and 0.000564 kPa and 0.000565 kPa
406.35 K	0.000686 kPa and 0.000679 kPa and 0.00068 kPa
408.35 K	0.00081 kPa and 0.000796 kPa and 0.0008 kPa
410.23 K	0.000962 kPa and 0.000954 kPa and 0.000926 kPa
